What all share (assay type): physicochemical
Series [1] in a line: Stability under tested stress conditions (grinding, pressure of 2 tons, humidity, temperature), summary statements. Conditions: strong grinding; for stability under all tested stress conditions: high temperature up to 100° C.
The nature of series [2]: Storage stability at different relative humidity (XRPD after 7 days). Conditions: ambient temperature; for XRPD analysis results 60% (7 days): polymorphic conversion: 60% relative humidity. Here is the method: Samples of Gusacitinib Forms: GS2, GS3, GS4 and Gusacitinib HCl salt Forms GHC11, GHC12, GHC18 were subjected to conditions of different relative humidity at ambient temperature. XRPD analysis was performed on the samples after 7 days.
A sample of Form GHC13 of Gusacitinib HCl salt was subjected to 60% relative humidity for 7 days.

Series [3] can be described thus: Thermal stability (heating up to 100° C. for 30 minutes, XRPD). Here is the method:
Samples of Gusacitinib Forms: GS2, GS3, GS4 and Gusacitinib HCl salt Forms GHC11, GHC12 and GHC18 were subjected to heating up to 100° C. for 30 minutes. XRPD analysis of the samples confirmed there to be no change in the starting material (Table 3): […]

Series [4] in a line: Grinding experiments (strong grinding and solvent drop grinding, XRPD). Here is the method:
Samples of Gusacitinib Forms: GS2, GS3, GS4 and Gusacitinib HCl salt Forms: GHC11, GHC12, GHC13, GHC18 were subjected to strong grinding, and to solvent drop grinding in isopropanol, ethanol and water. Grinding was carried out on the sample alone, or in the presence of the solvent. In these experiments, about 20 mg of the sample is placed in a mortar and ground with a pestle for 2 minutes. The solvent, when used, was added to the crystalline material before grinding, in a volume of 10 microlitres. XRPD analysis performed on the sample after the grinding experiment, confirmed no conversion of the starting material (Table 2): […]

Consider seven molecules from US20250171448A1, “SOLID STATE FORMS OF GUSACITINIB” (TEVA PHARMACEUTICALS INTERNATIONAL GMBH, priority 2022, published 2025).

As for `N#CCC1CCN(c2nc(Nc3ccc(N4CCC(O)CC4)cc3)c3c(=O)[nH]ncc3n2)CC1` [Form GHC13], in series [1] (high humidity up to 60% RH for 7 days), the “stability under tested stress conditions” value is listed as “stable”. In addition, the “XRPD analysis results 60% (7 days): polymorphic conversion” value (“XRPD analysis results 60% (7 days)” below) in series [2] is “no polymorphic conversion”.
Turning to `N#CCC1CCN(c2nc(Nc3ccc(N4CCC(O)CC4)cc3)c3c(=O)[nH]ncc3n2)CC1` [Form GHC12], the “XRPD analysis results 60% (7 days)” value in series [2] (listed as GHCl2) is recorded as “No”.
Regarding `N#CCC1CCN(c2nc(Nc3ccc(N4CCC(O)CC4)cc3)c3c(=O)[nH]ncc3n2)CC1` [Form GS3, 2-[1-[4-[4-(4-hydroxypiperidin-1-yl)anilino]-5-oxo-6H-pyrimido[4,5-d]pyridazin-2-yl]piperidin-4-yl]acetonitrile], the “XRPD analysis results 60% (7 days)” value in series [2] (listed as GS3) was “No”.
With `N#CCC1CCN(c2nc(Nc3ccc(N4CCC(O)CC4)cc3)c3c(=O)[nH]ncc3n2)CC1` [Form GHC11], in series [1] (high humidity up to 100% RH for 7 days), the “stability under all tested stress conditions” value was “stable”. In addition, the “XRPD analysis results 60% (7 days)” value in series [2] (listed as GHCl1) is “No”.
In the case of `N#CCC1CCN(c2nc(Nc3ccc(N4CCC(O)CC4)cc3)c3c(=O)[nH]ncc3n2)CC1` [Form GHC18], in series [2] (listed as GHCl8), the “XRPD analysis results 60% (7 days)” value is “No”.
As to `N#CCC1CCN(c2nc(Nc3ccc(N4CCC(O)CC4)cc3)c3c(=O)[nH]ncc3n2)CC1` [Form GS4, 2-[1-[4-[4-(4-hydroxypiperidin-1-yl)anilino]-5-oxo-6H-pyrimido[4,5-d]pyridazin-2-yl]piperidin-4-yl]acetonitrile], the “stability under all tested stress conditions” value in series [1] (high humidity up to 80% RH for 7 days) was “stable”. Besides, in series [2] (listed as GS4), the “XRPD analysis results 60% (7 days)” value is reported as “No”. In addition, the “XRPD analysis results 80% (7 days): polymorphic conversion” value in series [2] (80% relative humidity) is recorded as “No”. Besides, the “XRPD analysis results 100% (7 days): polymorphic conversion” value in series [2] (100% relative humidity) is reported as “No”.
As to `N#CCC1CCN(c2nc(Nc3ccc(N4CCC(O)CC4)cc3)c3c(=O)[nH]ncc3n2)CC1` [Form GS2, 2-[1-[4-[4-(4-hydroxypiperidin-1-yl)anilino]-5-oxo-6H-pyrimido[4,5-d]pyridazin-2-yl]piperidin-4-yl]acetonitrile], the “Result, Heating 100° C., 30 minutes” value in series [3] is recorded as “Stable”. In addition, the “XRPD analysis results, Solvent-drop grinding (ethanol)” value in series [4] (about 20 mg ground 2 minutes, 10 microlitres ethanol) is reported as “No polymorphic”. For the same molecule, the “XRPD analysis results, Solvent-drop grinding (isopropyl alcohol)” value in series [4] (about 20 mg ground 2 minutes, 10 microlitres isopropyl alcohol) is “No polymorphic”. Also, the “XRPD analysis results, Solvent-drop grinding (water)” value in series [4] (about 20 mg ground 2 minutes, 10 microlitres water) is “No polymorphic”. In addition, in series [4] (about 20 mg ground with mortar and pestle for 2 minutes, no solvent), the “XRPD analysis results, Strong grinding” value is reported as “No polymorphic”. Further, in series [2] (listed as GS2), the “XRPD analysis results 60% (7 days)” value is on record as “No”.
